Legend:
Format in all cases: in vivo
[1] = tested on: diamondback moth (Plutella xylostella); assay: Insecticidal effect on diamondback moth (Test Example 1); details: diamondback moth; mortality judged by criterion of Test Example 1
Procedure, shortened: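 Triplicate groups of 10 insects were scored: six days after immersion of oviposited Chinese cabbage seedlings and holding at 25 °C post air-drying, hatched larvae were counted. Mortality derived from these counts and insecticidal effect judged by a set criterion.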

[2] = tested on: common cutworm (Spodoptera Litura); assay: Insecticidal effect on common cutworm (Test Example 2); details: common cutworm second-instar larvae; cabbage leaf immersed, 500 ppm; eight days after inoculation; 25° C.
Procedure, shortened: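 Air-dried treated material was placed in a closed dish with second-instar larvae and held at 25° C. Dead and live insects were counted eight days after inoculation, and mortality was calculated and scored against a fixed insecticidal-effect criterion. Three replicate groups of 10 insects were used.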

[3] = tested on: rice leafroller (Cnaphalocrocis medinalis); assay: Insecticidal effect on rice leafroller (Test Example 3); details: rice leafroller third-instar larvae; rice lamina immersed, 500 ppm; four days after inoculation; 25° C., humidity 70%
Procedure, shortened: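 Insecticidal effect is judged by a predefined criterion from dead/alive counts four days after infesting air-dried lamina with third-instar larvae, kept on moistened filter paper at 25° C, 70% humidity.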

Row | Compound | Insecticidal effect, Test Example 1 [1] | Insecticidal effect, Test Example 2 [2] | Insecticidal effect, Test Example 3 [3]
1 | Cc1cc(C(F)(F)C(F)(F)F)ccc1NC(=O)c1cccc(I)c1C(=O)NCC(C)C [compound 1005] | A (100) | A (100) | A (100)
2 | CCC(C)NC(=O)c1c(I)cccc1C(=O)Nc1ccc(C(F)(F)C(F)(F)F)cc1C (stereo not drawn) [compound 1007] | A (100) | A (100) | A (100)
3 | CCCC(C)NC(=O)c1c(I)cccc1C(=O)Nc1ccc(C(F)(F)C(F)(F)F)cc1C (stereo not drawn) [compound 1009] | A (100) | A (100) | A (100)
4 | CCC(CC)NC(=O)c1c(I)cccc1C(=O)Nc1ccc(C(F)(F)C(F)(F)F)cc1C [compound 1011] | A (100) | A (100) | A (100)
5 | CCC(COC)NC(=O)c1c(I)cccc1C(=O)Nc1ccc(C(F)(F)C(F)(F)F)cc1C (stereo not drawn) [compound 1013] | A (100) | A (100) | A (100)
6 | Cc1cc(C(F)(F)C(F)(F)F)ccc1NC(=O)c1cccc(I)c1C(=O)NCCC(C)C [compound 1015] | A (100) | D (79-50) | A (100)
7 | CCc1cc(C(F)(F)C(F)(F)F)ccc1NC(=O)c1cccc(I)c1C(=O)NC(C)C [compound 1017] | A (100) | A (100) | A (100)
8 | Cc1cc(OC(F)F)ccc1NC(=O)c1ccccc1C(=O)NC(C)(C)C [compound 1018] | A (100) | D (79-50) | A (100)
9 | Cc1cc(OC(F)F)ccc1NC(=O)c1cccc(Cl)c1C(=O)NC(C)(C)C [compound 1019] | A (100) | A (100) | A (100)
10 | Cc1cc(OC(F)F)ccc1NC(=O)c1cccc(I)c1C(=O)NC(C)(C)C [compound 1020] | A (100) | A (100) | A (100)
11 | CC(C)(C)NC(=O)c1c(Cl)cccc1C(=O)Nc1ccc(OC(F)(F)F)cc1Cl [compound 1022] | A (100) | A (100) | A (100)
12 | CC(C)(C)NC(=O)c1c(I)cccc1C(=O)Nc1ccc(OC(F)(F)F)cc1Cl [compound 1023] | A (100) | A (100) | A (100)
13 | Cc1cc(C(F)(F)C(F)(F)F)ccc1NC(=O)c1cccc(I)c1C(=O)NC1CC1 [compound 1024] | A (100) | A (100) | A (100)
14 | Cc1cc(C(F)(F)C(F)(F)F)ccc1NC(=O)c1cccc(I)c1C(=O)NCC1CCCCC1 [compound 1028] | A (100) | A (100) | A (100)
15 | COCC(C)NC(=O)c1c(I)cccc1C(=O)Nc1ccc(C(F)(F)C(F)(F)F)cc1C (stereo not drawn) [compound 1031] | A (100) | A (100) | A (100)
16 | Cc1cc(C(F)(F)C(F)(F)F)ccc1NC(=O)c1cccc(I)c1C(=O)NC(C)C(C)C (stereo not drawn) [compound 1033] | A (100) | A (100) | A (100)

Row | Compound | Insecticidal effect, Test Example 1 [1] | Insecticidal effect, Test Example 2 [2] | Insecticidal effect, Test Example 3 [3]
17 | CCN(CC)C(=O)c1c(I)cccc1C(=O)Nc1ccc(C(F)(F)C(F)(F)F)cc1C [compound 1035] | A (100) | A (100) | A (100)
18 | Cc1cc(C(F)(C(F)(F)F)C(F)(F)F)ccc1NC(=O)c1ccccc1C(=O)NC(C)(C)C [compound 1037] | A (100) | A (100) | A (100)
19 | Cc1cc(C(F)(C(F)(F)F)C(F)(F)F)ccc1NC(=O)c1cccc(Cl)c1C(=O)NC(C)(C)C [compound 1038] | A (100) | A (100) | A (100)
20 | Cc1cc(C(F)(C(F)(F)F)C(F)(F)F)ccc1NC(=O)c1cccc(I)c1C(=O)NC(C)(C)C [compound 1039] | A (100) | A (100) | A (100)
21 | Cc1cc(C(F)(F)C(F)(F)F)ccc1NC(=O)c1cccc(I)c1C(=O)NCC(F)(F)F [compound 1040] | A (100) | A (100) | A (100)
22 | Cc1cc(C(F)(F)C(F)(F)F)ccc1NC(=O)c1c(I)cccc1C(=O)NCC(F)(F)F [compound 1041] | A (100) | A (100) | A (100)
23 | Cc1cc(C(F)(F)C(F)(F)F)ccc1NC(=O)c1cccc(I)c1C(=O)N(C)C(C)C [compound 1042] | A (100) | A (100) | A (100)
24 | CCCN(CCC)C(=O)c1c(I)cccc1C(=O)Nc1ccc(C(F)(F)C(F)(F)F)cc1C [compound 1044] | A (100) | A (100) | A (100)
25 | C=CCN(CC=C)C(=O)c1c(I)cccc1C(=O)Nc1ccc(C(F)(F)C(F)(F)F)cc1C [compound 1045] | A (100) | A (100) | A (100)
26 | CCOCCN(CCOCC)C(=O)c1c(I)cccc1C(=O)Nc1ccc(C(F)(F)C(F)(F)F)cc1C [compound 1046] | A (100) | A (100) | A (100)
27 | Cc1cc(OC(F)(F)Br)ccc1NC(=O)c1ccccc1C(=O)NC(C)(C)C [compound 1049] | A (100) | A (100) | A (100)
28 | Cc1cc(OC(F)(F)Br)ccc1NC(=O)c1cccc(Cl)c1C(=O)NC(C)(C)C [compound 1050] | A (100) | A (100) | A (100)
29 | Cc1cc(OC(F)(F)Br)ccc1NC(=O)c1cccc(I)c1C(=O)NC(C)(C)C [compound 1051] | A (100) | A (100) | A (100)
30 | CC(C)(C)NC(=O)c1c(Cl)cccc1C(=O)Nc1ccc(C(O)(C(F)(F)F)C(F)(F)F)cc1 [compound 1053] | A (100) | A (100) | A (100)
31 | CC(C)(C)NC(=O)c1c(I)cccc1C(=O)Nc1ccc(C(O)(C(F)(F)F)C(F)(F)F)cc1 [compound 1054] | A (100) | A (100) | A (100)

From US6362369B1, “Phthalic acid diamide derivatives fluorine-containing aniline compounds as starting material, agricultural and horticultural insecticides, and a method for application of the insecticides” (Nihon Nohyaku Co., Ltd., priority 1997, dated 2002)
